These results are taken from publication PMC13077603, “Fluorine‐18‐Labeled Nucleotide Analogs Targeting Ecto‐5'‐Nucleotidase (CD73) for Positron Emission Tomography Imaging of Solid Tumors” (Angewandte Chemie (International Ed. in English), 2026).

Data set [1] concerns the target T1, Soluble recombinant human CD73 (Homo sapiens, UniProt P21589).
T1 sequence (P21589 27-549 limits assumed): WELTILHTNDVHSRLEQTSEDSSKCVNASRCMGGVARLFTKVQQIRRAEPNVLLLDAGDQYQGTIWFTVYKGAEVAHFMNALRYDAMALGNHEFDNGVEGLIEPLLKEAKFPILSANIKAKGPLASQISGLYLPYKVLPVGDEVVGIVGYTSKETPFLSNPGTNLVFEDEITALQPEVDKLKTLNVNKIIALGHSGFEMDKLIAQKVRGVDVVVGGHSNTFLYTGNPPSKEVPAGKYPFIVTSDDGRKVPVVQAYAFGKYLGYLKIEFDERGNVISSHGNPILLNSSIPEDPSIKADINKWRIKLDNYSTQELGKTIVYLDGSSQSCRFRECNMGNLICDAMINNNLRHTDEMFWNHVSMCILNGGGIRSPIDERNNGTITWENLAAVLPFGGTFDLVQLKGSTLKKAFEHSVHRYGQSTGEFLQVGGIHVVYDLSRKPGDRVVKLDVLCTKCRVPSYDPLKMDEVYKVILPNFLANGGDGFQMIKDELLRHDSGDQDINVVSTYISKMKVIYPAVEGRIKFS
Put plainly: CD73 enzyme inhibition assay, soluble recombinant human CD73. Format: biochemical. Conditions: soluble recombinant human CD73, Km 17 µM, substrate AMP (5 µM). As for the experimental part: Both compounds were evaluated for metabolic stability in mouse liver microsomes (MLM) and plasma protein binding (PPB) (Table 1).
The CD73 enzyme inhibition assay of recombinant soluble CD73, membrane-bound human CD73, soluble rat CD73 and mouse CD73 was performed as previously described.^[16,35^]

A short description of data set [2]: logD7.4 determination of radiotracers (PBS/octan-1-ol). Type of data set: physicochemical. Conditions: octan-1-ol/PBS; PBS pH 7.4 / octan-1-ol, radiotracer. As for the experimental part:
The logD 7.4 values of both radiotracers were determined using a previously described method based on their distribution between phosphate‐buffered saline (PBS) and octan‐1‐ol.
Triazole radiotracers (~400 kBq) in PBS buffer (10 µL, pH 7.4) were added to PBS buffer (590 µL, pH 7.4) and octan-1-ol (600 µL). The two-layer mixture was shaken for 3 min on a vortex mixer at r.t. and centrifuged (200 g) for 5 min. The main part of the octanol layer (400 µL) was carefully collected and transferred to a new tube containing PBS buffer (400 µL, pH 7.4). The two-layer mixture was shaken again for 10 min and centrifuged for 5 min (200 g). Three samples were prepared, and two aliquots (á 100 µL) of both layers were measured in a gamma-counter 2480 Wizard2 (Perkin-Elmer, Waltham, USA). The partition coefficient was determined by dividing cpm (octanol) by cpm (PBS) and indicated as logD7.4 (exp.).

Another data set relates to MDA‐MB‐231 tumor. Description: PET imaging in MDA-MB-231 breast cancer xenograft model. Format: in vivo, NSG mice. The procedure:
Given the specificity of [^18F]1 and [^18F]2 and the promising in vivo biodistribution profile of [^18F]1, we established a small‐animal human breast tumor xenograft model in NSG mice subcutaneously implanted with MDA‐MB‐231 cells. […] For blocking studies, PSB‐12651 (15, Figure 6) or unlabeled 1 were used.
FIGURE 6 PET imaging data in an MDA‐MB‐231 tumor mouse model. (A). PET images, CT scans, and merged images of [^18F]2 in the MDA‐MB‐231 tumor mouse model 90 min after tracer injection. White arrows mark the tumor positions. (B). Quantitative PET analysis of [^18F]2 uptake: activity concentration of [^18F]2 in muscle and tumor tissues 90 min after tracer injection (left) and respective tumor‐to‐muscle ratio (right, n = 5 tumors). (C). PET‐CT images of [^18F]1 and [^18F]FDG in the MDA‐MB‐231 tumor mouse model, 260 min ([^18F]1), or 75 min ([^18F]FDG) after injection. […] White arrows mark the positions of tumors. (D). Quantitative PET analysis of [^18F]1 uptake: activity concentration of [^18F]1 and [^18F]FDG in muscle and tumor tissues (left) and tumor‐to‐muscle ratios (right) after 260 min. [^18F]1: n = 18 tumors, [^18F]1 plus unlabeled 1 block: n = 8 tumors, [^18F]1 plus compound 15 block: n = 6 tumors, [^18F]FDG: n = 18 tumors E. Ex vivo analysis of [^18F]1 uptake as measured by gamma counter: activity concentrations of [^18F]1 in muscle and tumor tissues after 260 min without and with blocking (left) and tumor‐to‐muscle ratios (right). [^18F]1: n = 6 tumors, [^18F]1 plus unlabeled 1 block: n = 6 tumors, [^18F]1 plus compound 15 block: n = 5 tumors.^# relative to the respective muscle, *relative to [^18F]1 without blocker, relative to the unblocked tumor; *<0.05; **<0.01, ***<0.001,^#<0.05; ^## <0.01, ^###<0.001, <0.05; <0.01, <0.001, ns: non‐significant, unpaired t‐test.
MDA-MB-231 cells were cultivated in DMEM/GlutaMAX, supplemented with 10 % fetal calf serum, 100 U/mL penicillin, and 100 µg/mL streptomycin and L-glutamine to a final concentration of 8 mmol/L. AsPC-1 cells were cultivated in RPMI, supplemented with 10 % fetal calf serum, 100 U/mL penicillin, and 100 µg/mL streptomycin and L-glutamine to a final concentration of 8 mmol/L. 5 x 10^6 MDA-MB-231 or 1x 10^6 AsPC-1 cells were injected subcutaneously into the shoulder region of 7 to 12 weeks old NSG (NOD.Cg-Prkdc^scid Il2rg^tm1Wjl/SzJ) mice (Charles River Laboratories). Two tumors were inoculated per animal, and growth was followed by digital caliper measurements (volume = ½ (length * width^2)).
Adult C57bl/6 (biodistribution study, 19.8±1.3 g) or tumor-bearing NSG mice (22.2±2.2 g) were anesthetized by isoflurane/O2, and one lateral tail vein was cannulated using a 27 G needle. A respective radiotracer (~ 390 kBq/g body weight) was injected as a bolus via the tail vein, and subsequent PET scanning was performed. A ~1000-fold excess of unlabeled JMS0414 (14 for [^18F]MRS-4648 ([^18F]2)), unlabeled PSB-19427 (1), or PSB-12651 (15) (for [^18F]PSB-19427 ([^18F]1)) was injected into a subgroup of tumor-bearing mice 10 min before radiotracer injection in the blocking studies. PET imaging studies were carried out using a submillimeter high resolution (0.7 mm full width at half-maximum) small animal scanner (32 module quadHIDAC, Oxford Positron Systems Ltd., Oxford, UK) with a uniform spatial resolution (<1 mm) over a large cylindrical field (165 mm diameter, 280 mm axial length). […]

As a reminder, the Ki is the equilibrium dissociation constant of an inhibitor or competing ligand from its target. The term logD denotes the decadic logarithm of the distribution of all forms, ionised or not, between an organic phase and buffer at a given pH. On to `CCCN(Cc1ccc(-c2cn(CC[18F])nn2)cc1)c1nc(Cl)nc2c1ncn2[C@@H]1O[C@H](COP(=O)(O)CP(=O)(O)O)[C@@H](O)[C@H]1O` [[^18F]1, [^18F]-[((2R,3S,4R,5R)-5-{2-chloro-6-[(4-{1-[2-(fluoro)ethyl]-1H-1,2,3-triazol-4-yl}benzyl)-(propyl)amino]-9H-purin-9-yl}-3,4-dihydroxytetrahydrofuran-2-yl)methoxy]methylene-bisphosphonic acid], for which the Ki in data set [1] came to 1.02 ± 0.11 nM. In data set [2], the logD is -0.12.
Take `Cn1c(=O)n([C@@H]2O[C@H](COP(=O)(O)CP(=O)(O)O)[C@@H](O)[C@H]2O)cc/c1=N/OCc1ccc(-c2cn(CC[18F])nn2)cc1` [[^18F]2, [^18F]-{[(2R,3S,4R,5R)-5-(4-{[(4-{1-[2-(fluoro)ethyl]-1H-1,2,3-triazol-4-yl}benzyl)-oxy]imino}-3-methyl-2-oxo-3,4-dihydropyrimidin-1(2H)-yl)-3,4-dihydroxytetra-hydrofuran-2-yl]methoxy}methylenebisphosphonic acid]: the Ki in data set [1] turned out to be 0.664 ± 0.089 nM. In addition, in the data set on MDA‐MB‐231 tumor (MDA‐MB‐231 model, 90 min PET), the “Tumor accumulation” value is given as “very low tumor accumulation”. The compound also returned a logD in data set [2] of 0.74 ± 0.29.
`CCCN(Cc1ccc(-c2cn(CCF)nn2)cc1)c1nc(Cl)nc2c1ncn2[C@@H]1O[C@H](COP(=O)(O)CP(=O)(O)O)[C@@H](O)[C@H]1O` [compound 1]: in data set [1], the Ki came out at 1.02 nM. Also, in the data set with MDA‐MB‐231 tumor (MDA‐MB‐231 model, PET, after 260 min), the Muscle uptake was 0.86% ± 0.24 % ID/mL. Besides, the Tumor uptake with MDA‐MB‐231 tumor (MDA‐MB‐231 tumor, PET, after 260 min) is on record as 3.60% ± 1.27 %ID/mL. Moreover, the logD in data set [2] was -0.12 ± 0.03.
